In patent US3984548A, “Substituted pyrido[1,2,3,-de]-1,4-benzoxazines as bactericides” (Riker Laboratories, Inc., priority 1974, dated 1976):

How the values were obtained:
Format in all cases: cell-based
Set-up in all cases: key: +: active; -: inactive
Details in all cases: agar plates, 1 to 100 milligrams/liter
[1] = test system: Bacillus Subtilus; assay: standard plate dilution method, Bacillus subtilus
Procedure: (§1) The culture medium employed permits susceptibility testing of fastidious microorganisms towards antibiotics, sulfonamides and other chemotherapeutic agents. Tryptone soy agar (oxoid) of the following composition is the culture medium. In the test procedure, the amount of a compound required to give complete inhibition or no inhibition of the microbial growth on the agar plates was determined. The compound selected for evaluation is added to the agar medium to give concentrations of one, ten and one hundred milligrams per liter. A series of plates with these concentrations is prepared. Plates containing agar alone are included as controls. Ten percent horse serum is added to one series of such plates. Aliquots of broth culture of each of nine species of microorganisms are innoculated onto the agar plates containing the various compound concentrations and onto the control plates. The plates are incubated at 37° C. in a 10 percent carbon dioxide atmosphere for 18 to 25 hours. The microbial growth on each plate is read visually, and minimal inhibitory concentrations are recorded.

[2] = test system: Staphylococcus aureus; assay: standard plate dilution method, Staphylococcus aureus
Procedure: as §1

[3] = test system: Streptococcus Sp; assay: standard plate dilution method, Streptococcus sp.
Procedure: as §1

[4] = test system: Herellea vaginicola; assay: standard plate dilution method, Herellea vaginicola
Procedure: as §1

[5] = test system: Escherichia coli; assay: standard plate dilution method, Escherichia coli
Procedure: as §1

[6] = test system: Mima polymorpha; assay: standard plate dilution method, Mima polymorpha
Procedure: as §1

[7] = test system: Pseudmonas aeruginosa; assay: standard plate dilution method, Pseudomonas aeruginosa
Procedure: as §1

| Structure (SMILES) | Microorganism BS (growth inhibition) [1] | Microorganism SA (growth inhibition) [2] | Microorganism SS (growth inhibition) [3] | Microorganism HV (growth inhibition) [4] | Microorganism EC (growth inhibition) [5] | Microorganism MP (growth inhibition) [6] | Microorganism PA (growth inhibition) [7] |
| --- | --- | --- | --- | --- | --- | --- | --- |
| Cc1c(Cl)cc2c(=O)c(C(=O)O)cn3c2c1OCC3C (stereo not drawn) [Example 34 (acid)] | + | + | + | + | + | + | + |
| Cc1cc(Cl)c2c3c1c(=O)c(C(=O)O)cn3C(C)CO2 (stereo not drawn) [Example 37 (acid)] | + | + | + | + | + | + | + |
| CCOC(=O)c1cn2c3c(cc(F)cc3c1=O)OCC2C (stereo not drawn) [Example 6, ethyl 2,3-dihydro-9-fluoro-3-methyl-7-oxo-7H-pyrido[1,2,3-de]-1,4-benzoxazine-6-carboxylate] | + | + | - | + | + | - | + |
| CCOC(=O)c1cn2c3c(c(C)cc(Cl)c3c1=O)OCC2C (stereo not drawn) [Example 41 (ester)] | + | + | - | + | + | - | - |
| O=C(O)c1cn2c3c(cc(F)cc3c1=O)OCC2 [Example 43 (acid)] | + | + | + | + | + | - | - |
| CCOC(=O)c1cn2c3c(ccc(F)c3c1=O)OCC2C (stereo not drawn) [Example 5, ethyl 2,3-dihydro-8-fluoro-3-methyl-7-oxo-7H-pyrido[1,2,3-de]-1,4-benzoxazine-6-carboxylate] | + | - | - | + | + | - | - |
| CC1COc2cc(F)cc3c(=O)c(C(=O)O)cn1c23 (stereo not drawn) [Example 24, 9-fluoro-2,3-dihydro-3-methyl-7-oxo-7H-pyrido[1,2,3-de]-1,4-benzoxazine-6-carboxylic acid] | + | + | + | + | + | - | + |
| CC1COc2ccc([N+](=O)[O-])c3c(=O)c(C(=O)O)cn1c23 (stereo not drawn) [Example 44, 2,3-dihydro-3-methyl-8-nitro-7-oxo-7H-pyrido[1,2,3-de]-1,4-benzoxazine-6-carboxylic acid] | + | + | - | + | + | - | - |
| COc1cc2c3c(c1)c(=O)c(C(=O)O)cn3C(C)CO2 (stereo not drawn) [Example 20, 2,3-dihydro-9-methoxy-3-methyl-7-oxo-7H-pyrido[1,2,3-de]-1,4-benzoxazine-6-carboxylic acid] | + | + | - | + | + | - | - |
| CC1COc2cc(Cl)cc3c(=O)c(C(=O)O)cn1c23 (stereo not drawn) [Example 23, 9-chloro-2,3-dihydro-3-methyl-7-oxo-7H-pyrido[1,2,3-de]-1,4-benzoxazine-6-carboxylic acid] | + | + | + | + | + | - | - |
| Cc1ccc2c(=O)c(C(=O)O)cn3c2c1OCC3C (stereo not drawn) [Example 39 (acid)] | + | - | + | + | + | + | + |
| Cc1ccc2c3c1c(=O)c(C(=O)O)cn3C(C)CO2 (stereo not drawn) [Example 26, 8-methyl-2,3-dihydro-3-methyl-7-oxo-7H-pyrido[1,2,3-de]-1,4-benzoxazine-6-carboxylic acid] | + | + | + | + | + | - | - |
| Cc1cc(C)c2c(=O)c(C(=O)O)cn3c2c1OCC3C (stereo not drawn) [Example 42 (acid)] | + | + | + | + | + | + | + |
| CC1COc2c(F)ccc3c(=O)c(C(=O)O)cn1c23 (stereo not drawn) [Example 21, 2,3-dihydro-10-fluoro-3-methyl-7-oxo-7H-pyrido[1,2,3-de]-1,4-benzoxazine-6-carboxylic acid] | + | + | + | + | + | - | - |
| CC1COc2ccc(Cl)c3c(=O)c(C(=O)O)cn1c23 (stereo not drawn) [Example 17, 8-chloro-2,3-dihydro-3-methyl-7-oxo-7H-pyrido[1,2,3-de]-1,4-benzoxazine-6-carboxylic acid] | + | - | + | + | + | - | - |
| CCOC(=O)c1cn2c3c(c(C)cc(C)c3c1=O)OCC2C (stereo not drawn) [Example 42 (ester)] | + | - | - | - | - | - | - |
| Cc1cc2c3c(c1)c(=O)c(C(=O)O)cn3C(C)CO2 (stereo not drawn) [Example 16, 2,3-dihydro-3,9-dimethyl-7-oxo-7H-pyrido[1,2,3-de]-1,4-benzoxazine-6-carboxylic acid] | + | + | + | + | + | - | - |
| CCOC(=O)c1cn2c3c(c(C)c(Cl)cc3c1=O)OCC2C (stereo not drawn) [Example 34 (ester)] | + | + | + | + | + | + | + |
| CC1COc2c(Cl)cc([N+](=O)[O-])c3c(=O)c(C(=O)O)cn1c23 (stereo not drawn) [Example 38 (acid)] | + | + | - | + | + | - | - |
| CC1COc2c(Cl)ccc3c(=O)c(C(=O)O)cn1c23 (stereo not drawn) [Example 22, 10-chloro-2,3-dihydro-3-methyl-7-oxo-7H-pyrido[1,2,3-de]-1,4-benzoxazine-6-carboxylic acid] | + | + | + | + | + | + | + |
| CCOC(=O)c1cn2c3c(c(C)ccc3c1=O)OCC2C (stereo not drawn) [Example 39 (ester)] | - | - | + | - | + | - | + |
